Holding throughout (test): biochemical
Assay [1] concerns the target T1, panel of 374 wild-type kinases (Homo sapiens, UniProt O75385).
T1 construct: purchased Reaction Biology Corporation
T1 sequence (O75385 1-1050): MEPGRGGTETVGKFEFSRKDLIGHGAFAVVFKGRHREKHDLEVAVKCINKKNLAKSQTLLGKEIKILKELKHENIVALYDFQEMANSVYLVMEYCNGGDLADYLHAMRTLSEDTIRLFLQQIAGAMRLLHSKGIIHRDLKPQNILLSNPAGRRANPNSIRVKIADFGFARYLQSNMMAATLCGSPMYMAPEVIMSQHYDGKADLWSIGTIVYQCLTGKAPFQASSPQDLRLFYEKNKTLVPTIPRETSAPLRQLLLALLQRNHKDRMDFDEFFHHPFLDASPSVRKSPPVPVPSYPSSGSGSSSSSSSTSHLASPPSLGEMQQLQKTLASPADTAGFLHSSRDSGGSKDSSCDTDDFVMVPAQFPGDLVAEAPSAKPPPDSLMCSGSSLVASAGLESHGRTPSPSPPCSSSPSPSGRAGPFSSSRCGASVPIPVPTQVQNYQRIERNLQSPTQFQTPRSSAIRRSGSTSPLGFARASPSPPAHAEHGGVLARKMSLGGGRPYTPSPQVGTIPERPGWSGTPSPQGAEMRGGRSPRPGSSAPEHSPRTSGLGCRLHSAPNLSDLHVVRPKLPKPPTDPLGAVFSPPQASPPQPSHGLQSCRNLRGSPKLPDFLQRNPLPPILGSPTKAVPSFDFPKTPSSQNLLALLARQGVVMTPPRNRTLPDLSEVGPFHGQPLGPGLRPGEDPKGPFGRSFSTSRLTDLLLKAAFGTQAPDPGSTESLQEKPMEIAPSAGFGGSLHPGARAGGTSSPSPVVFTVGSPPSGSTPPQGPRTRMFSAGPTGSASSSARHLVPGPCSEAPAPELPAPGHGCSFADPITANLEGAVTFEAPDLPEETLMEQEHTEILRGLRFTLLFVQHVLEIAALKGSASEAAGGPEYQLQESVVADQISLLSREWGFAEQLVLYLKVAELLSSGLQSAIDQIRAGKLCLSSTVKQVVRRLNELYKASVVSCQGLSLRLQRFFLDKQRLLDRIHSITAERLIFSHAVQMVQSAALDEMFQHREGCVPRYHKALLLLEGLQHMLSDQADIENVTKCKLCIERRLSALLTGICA
The note with it: read-out: % Enzyme Activity (relative to DMSO controls), kinase ULK1.

Assay [2] concerns the target T2, panel of 374 wild-type kinases (Homo sapiens, UniProt P06241).
T2 construct: purchased Reaction Biology Corporation
As to conditions: read-out: % Enzyme Activity (relative to DMSO controls), FYN.

Assay [3] deals with T3, panel of 374 wild-type kinases (Homo sapiens, UniProt P22607).
T3 construct: purchased Reaction Biology Corporation
T3 sequence (P22607 23-806): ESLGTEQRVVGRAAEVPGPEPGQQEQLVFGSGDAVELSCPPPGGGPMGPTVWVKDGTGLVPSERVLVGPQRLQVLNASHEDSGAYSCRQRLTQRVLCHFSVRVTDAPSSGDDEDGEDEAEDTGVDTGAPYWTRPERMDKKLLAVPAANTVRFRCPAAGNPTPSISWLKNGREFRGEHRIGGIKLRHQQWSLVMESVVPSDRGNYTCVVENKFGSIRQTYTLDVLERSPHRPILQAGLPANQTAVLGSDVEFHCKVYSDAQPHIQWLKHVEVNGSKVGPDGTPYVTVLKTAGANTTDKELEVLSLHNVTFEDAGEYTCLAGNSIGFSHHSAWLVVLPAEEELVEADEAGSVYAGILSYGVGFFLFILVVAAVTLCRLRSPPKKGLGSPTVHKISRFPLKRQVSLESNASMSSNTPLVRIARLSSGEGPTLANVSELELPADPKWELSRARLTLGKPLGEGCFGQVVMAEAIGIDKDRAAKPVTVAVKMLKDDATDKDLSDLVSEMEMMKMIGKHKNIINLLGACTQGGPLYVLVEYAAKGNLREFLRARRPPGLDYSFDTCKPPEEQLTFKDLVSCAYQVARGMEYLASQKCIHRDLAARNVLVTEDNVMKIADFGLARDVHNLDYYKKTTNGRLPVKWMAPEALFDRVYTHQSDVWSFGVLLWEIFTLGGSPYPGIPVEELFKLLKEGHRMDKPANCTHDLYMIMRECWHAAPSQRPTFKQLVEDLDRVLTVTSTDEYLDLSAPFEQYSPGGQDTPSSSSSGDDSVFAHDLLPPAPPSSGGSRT
As to conditions: read-out: % Enzyme Activity (relative to DMSO controls), FGFR3.

The target of assay [4] is T4, panel of 374 wild-type kinases (Homo sapiens, UniProt P36896).
T4 construct: purchased Reaction Biology Corporation
T4 sequence (P36896 24-505): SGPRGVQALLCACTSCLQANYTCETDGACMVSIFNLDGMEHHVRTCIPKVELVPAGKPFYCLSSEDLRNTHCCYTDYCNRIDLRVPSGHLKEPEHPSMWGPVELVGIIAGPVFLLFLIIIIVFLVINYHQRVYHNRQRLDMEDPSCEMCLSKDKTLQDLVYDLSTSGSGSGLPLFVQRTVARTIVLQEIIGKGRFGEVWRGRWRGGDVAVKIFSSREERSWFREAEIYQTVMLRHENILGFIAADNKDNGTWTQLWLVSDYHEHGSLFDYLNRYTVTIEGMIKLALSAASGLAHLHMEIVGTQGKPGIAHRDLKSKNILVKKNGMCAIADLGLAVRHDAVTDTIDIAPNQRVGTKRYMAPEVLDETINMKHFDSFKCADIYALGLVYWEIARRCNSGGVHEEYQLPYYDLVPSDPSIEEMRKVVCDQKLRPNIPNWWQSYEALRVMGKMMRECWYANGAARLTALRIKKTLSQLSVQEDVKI
As to conditions: read-out: % Enzyme Activity (relative to DMSO controls), ALK4/ACVR1B.

Assay [5] deals with T5, panel of 374 wild-type kinases (Homo sapiens, UniProt P45983).
T5 construct: purchased Reaction Biology Corporation
T5 sequence (P45983 whole entry): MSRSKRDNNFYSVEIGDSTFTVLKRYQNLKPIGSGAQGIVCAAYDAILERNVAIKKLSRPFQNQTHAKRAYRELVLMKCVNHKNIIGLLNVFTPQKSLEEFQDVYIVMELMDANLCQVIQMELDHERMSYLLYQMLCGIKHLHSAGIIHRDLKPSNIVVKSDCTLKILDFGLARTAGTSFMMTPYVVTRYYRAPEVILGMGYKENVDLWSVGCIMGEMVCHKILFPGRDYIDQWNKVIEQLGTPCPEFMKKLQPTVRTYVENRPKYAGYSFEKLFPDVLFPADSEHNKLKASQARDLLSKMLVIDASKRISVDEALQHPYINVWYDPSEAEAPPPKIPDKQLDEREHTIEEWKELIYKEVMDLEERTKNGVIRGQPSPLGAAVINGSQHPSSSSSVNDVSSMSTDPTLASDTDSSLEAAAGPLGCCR
As to conditions: JNK1, read-out: % Enzyme Activity (relative to DMSO controls).

For assay [6], the target named is T6, panel of 374 wild-type kinases (Homo sapiens, UniProt P54762).
T6 construct: purchased Reaction Biology Corporation
T6 sequence (P54762 18-984): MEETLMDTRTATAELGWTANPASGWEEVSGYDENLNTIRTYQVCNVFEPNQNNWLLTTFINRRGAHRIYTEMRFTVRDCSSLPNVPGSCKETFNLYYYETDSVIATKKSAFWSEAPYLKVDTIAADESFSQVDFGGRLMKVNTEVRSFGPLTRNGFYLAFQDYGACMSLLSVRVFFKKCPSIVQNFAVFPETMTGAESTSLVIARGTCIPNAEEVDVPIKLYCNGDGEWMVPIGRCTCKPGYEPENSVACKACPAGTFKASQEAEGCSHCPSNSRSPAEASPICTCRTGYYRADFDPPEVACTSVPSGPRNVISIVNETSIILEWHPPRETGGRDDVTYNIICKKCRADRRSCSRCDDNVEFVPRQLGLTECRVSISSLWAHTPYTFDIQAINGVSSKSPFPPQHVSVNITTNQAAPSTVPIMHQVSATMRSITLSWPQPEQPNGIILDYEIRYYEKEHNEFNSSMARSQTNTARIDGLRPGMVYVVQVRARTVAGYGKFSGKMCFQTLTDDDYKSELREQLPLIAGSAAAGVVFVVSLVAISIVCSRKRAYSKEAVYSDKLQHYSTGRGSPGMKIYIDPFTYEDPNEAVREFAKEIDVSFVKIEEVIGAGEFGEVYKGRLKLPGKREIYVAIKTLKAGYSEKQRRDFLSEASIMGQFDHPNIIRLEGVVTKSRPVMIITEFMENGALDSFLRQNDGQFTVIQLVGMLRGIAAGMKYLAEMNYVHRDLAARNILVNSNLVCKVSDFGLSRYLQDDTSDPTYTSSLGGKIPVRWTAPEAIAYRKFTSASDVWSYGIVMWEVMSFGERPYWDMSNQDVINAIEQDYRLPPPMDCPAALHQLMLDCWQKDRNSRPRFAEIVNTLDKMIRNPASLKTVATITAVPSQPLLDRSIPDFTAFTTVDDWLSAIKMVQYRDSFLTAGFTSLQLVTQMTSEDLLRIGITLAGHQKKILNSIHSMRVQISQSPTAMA
The note with it: read-out: % Enzyme Activity (relative to DMSO controls), EPHB1.

The target of assay [7] is T7, panel of 374 wild-type kinases (Homo sapiens, UniProt Q9BUB5).
T7 construct: purchased Reaction Biology Corporation
T7 sequence (Q9BUB5 whole entry): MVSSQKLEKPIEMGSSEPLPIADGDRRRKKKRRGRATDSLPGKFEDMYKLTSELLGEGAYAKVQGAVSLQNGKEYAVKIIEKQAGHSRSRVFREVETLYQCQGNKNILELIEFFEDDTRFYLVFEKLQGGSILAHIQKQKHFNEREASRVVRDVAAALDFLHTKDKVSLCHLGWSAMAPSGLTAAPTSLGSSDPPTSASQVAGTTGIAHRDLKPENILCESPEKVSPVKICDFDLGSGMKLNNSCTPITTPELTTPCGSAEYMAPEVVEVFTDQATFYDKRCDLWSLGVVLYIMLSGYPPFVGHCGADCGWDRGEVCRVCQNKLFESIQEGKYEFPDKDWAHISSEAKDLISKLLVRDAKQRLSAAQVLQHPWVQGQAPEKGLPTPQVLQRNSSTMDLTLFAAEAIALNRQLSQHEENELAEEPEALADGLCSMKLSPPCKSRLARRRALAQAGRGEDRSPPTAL
As to conditions: read-out: % Enzyme Activity (relative to DMSO controls), MNK1.

T2 sequence (P06241 whole entry): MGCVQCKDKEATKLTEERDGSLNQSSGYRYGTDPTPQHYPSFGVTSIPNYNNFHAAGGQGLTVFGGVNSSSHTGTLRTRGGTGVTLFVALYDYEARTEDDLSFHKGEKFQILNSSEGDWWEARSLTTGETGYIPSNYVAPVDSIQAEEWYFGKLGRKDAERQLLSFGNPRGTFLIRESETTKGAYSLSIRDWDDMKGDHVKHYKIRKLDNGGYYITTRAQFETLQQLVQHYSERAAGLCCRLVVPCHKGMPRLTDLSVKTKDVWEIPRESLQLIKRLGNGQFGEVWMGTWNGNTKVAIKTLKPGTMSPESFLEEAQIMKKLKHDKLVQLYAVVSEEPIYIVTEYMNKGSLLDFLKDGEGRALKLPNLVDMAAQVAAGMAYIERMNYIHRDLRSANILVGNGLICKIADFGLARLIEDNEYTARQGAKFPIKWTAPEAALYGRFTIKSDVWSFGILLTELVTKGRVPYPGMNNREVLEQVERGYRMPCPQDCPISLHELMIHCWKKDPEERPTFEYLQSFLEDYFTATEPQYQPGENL

Turning to `O=C(Nc1cnn(-c2csc(C(=O)NC3COC3)c2)c1)Nc1ccccc1Cl` [Compound 17, 4-(4-(3-(2-chlorophenyl)ureido)-1H-pyrazol-1-yl)-N-(oxetan-3-yl)thiophene-2-carboxamide], the remaining activity at 5 µM in assay [1] was found to be 134%; in assay [2], 97.8%; in assay [3], 97.8%; in assay [4], 124%; in assay [5], 57.6%; in assay [6], 100%. Moreover, the remaining activity at 5 µM in assay [7] amounted to 94.3%.

Consider `O=C(Nc1cnn(-c2csc(C(=O)NC3COC3)c2)c1)Nc1c(F)cccc1Cl` [Compound 25, 4-(4-(3-(2-chloro-6-fluorophenyl)ureido)-1H-pyrazol-1-yl)-N-(oxetan-3-yl)thiophene-2-carboxamide], for which the remaining activity at 5 µM in assay [1] stood at 93.9%; in assay [2] it was 90.3%; in assay [3], 92%; in assay [4], 82%; in assay [5] it was 49.1%; in assay [6], 96.1%. For the same molecule, in assay [7], the remaining activity at 5 µM amounted to 103%.

On to `Cc1sc(C(=O)NC2COC2)cc1-n1cc(NC(=O)Nc2c(F)cccc2Cl)cn1` [Compound 27, 4-(4-(3-(2-chloro-6-fluorophenyl)ureido)-1H-pyrazol-1-yl)-5-methyl-N-(oxetan-3-yl)thiophene-2-carboxamide], for which the remaining activity at 10 µM in assay [1] (10 uM) came to 77.3%; in assay [2] (10 uM), 99.8%; in assay [3] (10 uM), 137%; in assay [4] (10 uM), 78.5%; in assay [5] (10 uM), 76.3%; in assay [6] (10 uM), 100%. In addition, in assay [7] (10 uM), the remaining activity at 10 µM worked out at 94.2%.

(Values after patent publication US20240246942A1, “KINASE INHIBITORS FOR THE TREATMENT OF NEURODEGENERATIVE DISEASES” (priority 2020, published 2024).)
